The text below walks through data of patent US10314803B2, “Pharmaceutical composition comprising eicosapentaenoic acid and nicotinic acid and methods of using same” (Amarin Pharmaceuticals Ireland Limited, priority 2008, dated 2019).

The test system of this data set is RBC arachidonic acid. Briefly: Red blood cell (RBC) EPA incorporation and arachidonic acid analysis in patients given ethyl-EPA. In kind it is in vivo, human. To be noted: patients, 0.5, 1, 2 or 4 g of 97% pure ethyl-EPA/day for 12 weeks; FIG. 1, average of several clinical studies. Here is the method:
An analysis was performed to assess the impact of red blood cell (RBC) EPA incorporation on arachidonic acid formation. In various studies, patients were randomized, on a double-blind basis, to receive either placebo (liquid paraffin) or 0.5 1, 2 or 4 g of 97% pure ethyl-EPA/day for 12 weeks. All the doses were administered in eight identical appearing capsules. RBCs were analyzed for EPA and AA following in general the methodology of Manku et al. M. S. Manku, D. F. Horrobin, Y. S. Huang and N. Morse, Fatty acids in plasma and red cell membranes in normal humans. Lipids 18 (1983), pp. 906-908).
Venous blood was collected into a tube pretreated with EDTA and centrifuged at 1500 gav for 15 min. The plasma layer and the buffy coat were separated off and the red cells washed with an equal volume of 0.9% saline. Samples were stored at −80° C. prior to analysis. On thawing, the RBCs were suspended in NaCL/H2SO4aq. (17 mmol/l NaCl, 1 mmol/l Sulfuric acid, 1.8 ml), then shaken with methanol (3 ml). Chloroform (6 ml) and C17:O internal standard were added and the sample was stirred vigorously using a vortex mixer. […] The resulting methyl esters of the fatty acids were separated and measured using a Hewlett-Packard HP5890 Series II Plus Gas chromatograph (cp-wax 52CB 25 m capillary column, Chrompack UK). […]

In the case of `CC/C=C\C/C=C\C/C=C\C/C=C\C/C=C\CCCC(=O)OCC` [EPA, eicosapentaenoic acid ethyl ester], the “RBC EPA” value was “increased”.
